{
  "source": "patent US20220205982A1",
  "about": "(CHILDREN'S HOSPITAL MEDICAL CENTER, priority 2019, published 2022)",
  "key": {"[1]": {"experiment": "Real-time PK study of melphalan in whole blood by PS-MS/MS in patients undergoing HSCT", "type": "in vivo", "conditions": "human, intravenous", "protocol": "Patients undergoing HSCT were administered by intravenous infusion a low dose of melphalan (referred to as the ‘test’ dose) to first determine each patient's individualized pharmacokinetics of the drug. After that the personalized optimal full dose was calculated from these measurements and then administered. The test dose equated to 10% of the expected standard full dose for each patient. Blood samples for pharmacokinetic measurement were collected after the test dose and again after the full standard dose of melphalan. Samples were collected at baseline, 5-10 mins before drug infusion, and then 5 min, 15 min, 30 min, 45 min, 1 h, 2h, 2.5h, 4h, and 6h post-infusion. […] Plasma samples from the same blood draw were also obtained after centrifugation at 3000 rpm for 15 min and stored at −80° C. degree until analyzed by both PS-MS/MS and LC-ESI-MS/MS. […]\nPS-MS/MS was performed on an automated PS ion source (Prosolia, Inc. Indianapolis, Ind.) interfaced with a TSQ Quantum Ultra mass spectrometer (Thermo Scientific, San Jose, Calif.). […] A total of 50 scans in positive ion mode were acquired over 1 min for each m/z transition monitored. The transitions m/z 305.3 →246.2 for melphalan and the corresponding transition m/z 313.3→254.2 for the I.S. were used for quantification, while the transition m/z 305.3→194.2 served as a qualifier for melphalan confirmation. […]"}, "[2]": {"experiment": "PK of melphalan in plasma by ESI-LC-MS/MS in patients undergoing HSCT", "type": "in vivo", "conditions": "human, intravenous", "protocol": "Patients undergoing HSCT were administered by intravenous infusion a low dose of melphalan (referred to as the ‘test’ dose) to first determine each patient's individualized pharmacokinetics of the drug. After that the personalized optimal full dose was calculated from these measurements and then administered. The test dose equated to 10% of the expected standard full dose for each patient. Blood samples for pharmacokinetic measurement were collected after the test dose and again after the full standard dose of melphalan. Samples were collected at baseline, 5-10 mins before drug infusion, and then 5 min, 15 min, 30 min, 45 min, 1 h, 2h, 2.5h, 4h, and 6h post-infusion. The blood samples were collected on ice and immediately transferred to the lab for PS-MS/MS analysis after collection to minimize drug degradation. Plasma samples from the same blood draw were also obtained after centrifugation at 3000 rpm for 15 min and stored at −80° C. degree until analyzed by both PS-MS/MS and LC-ESI-MS/MS.\nEach patient's pharmacokinetic profile was determined using WinNonlin v6.4 (Pharsight, Mountain View, Calif.). […]\nThe PS-MS\\MS method was validated in accordance with the FDA guidance for Bioanalytical Method Validation (fda.gov/downloads/Drugs/Guidance/ucm070107.pdf, May 2011), and Bansa S, et al., AAPS J., 2007, 9, 109-114. Specifically, three analytical runs were processed and analyzed to assess sensitivity, reproducibility, accuracy and precision. […] The assay accuracy was evaluated by comparing results obtained by PS-MS/MS to those obtained by a validated in-house LC-MS/MS melphalan assay for the same samples, wherein melphalan samples were measured by liquid chromatography-tandem mass spectrometry (LC-MS/MS) with selected-reaction monitoring and with the use of stable isotopic-labeled [2H8]-melphalan as the internal standard. Samples were analyzed with the LC20AD HPLC system (Shimadzu) coupled to the TSQ Quantum Ultra Triple Quadrupole Mass Spectrometer (Thermo Scientific). […]"}, "[3]": {"conditions": "ambient temperature; hydrolyzed to monohydroxymelphalan, then dihydroxymelphalan; cited from earlier work"}},
  "data": [
    {"smiles": "N[C@@H](Cc1ccc(N(CCCl)CCCl)cc1)C(=O)O", "note": "[melphalan, 4-[Bis(2-chloroethyl)amino]-L-phenylalanine]", "values": [
      {"measurement": "AUC", "setting": "[1]; 10 % of the expected standard full dose, lower test doses, PS-MS/MS, n=4, read-out: calculated mean AUC", "result": "410 ± 230", "unit": "ng·h/mL"},
      {"measurement": "AUC", "setting": "[1]; full dose, PS-MS/MS method, n=5, read-out: calculated mean AUC", "result": "4900 ± 1500", "unit": "ng·h/mL"},
      {"measurement": "AUC", "setting": "[2]; 10 % of the expected standard full dose, lower test doses, ESI-LC-MS/MS, n=4, read-out: calculated mean AUC", "result": "430 ± 210", "unit": "ng·h/mL"},
      {"measurement": "AUC", "setting": "[2]; Full Dose, individual patients and mean row, read-out: ESI-LC-MS/MS Plasma AUC", "result": 3900, "unit": "ng·h/mL"},
      {"measurement": "AUC", "setting": "[2]; full dose, ESI-LC-MS/MS method, n=5, read-out: calculated mean AUC", "result": "4300 ± 1000", "unit": "ng·h/mL"},
      {"measurement": "stability in blood and plasma", "setting": "[3]", "result": "unstable"}
    ]}
  ]
}
